BindingDB's records for patent US11116760 (Gilead Sciences, 2021)

Target: T1, Integrin alpha-4/beta-7 (Homo sapiens, UniProt P13612+P26010)
T1 sequence (P13612 whole entry): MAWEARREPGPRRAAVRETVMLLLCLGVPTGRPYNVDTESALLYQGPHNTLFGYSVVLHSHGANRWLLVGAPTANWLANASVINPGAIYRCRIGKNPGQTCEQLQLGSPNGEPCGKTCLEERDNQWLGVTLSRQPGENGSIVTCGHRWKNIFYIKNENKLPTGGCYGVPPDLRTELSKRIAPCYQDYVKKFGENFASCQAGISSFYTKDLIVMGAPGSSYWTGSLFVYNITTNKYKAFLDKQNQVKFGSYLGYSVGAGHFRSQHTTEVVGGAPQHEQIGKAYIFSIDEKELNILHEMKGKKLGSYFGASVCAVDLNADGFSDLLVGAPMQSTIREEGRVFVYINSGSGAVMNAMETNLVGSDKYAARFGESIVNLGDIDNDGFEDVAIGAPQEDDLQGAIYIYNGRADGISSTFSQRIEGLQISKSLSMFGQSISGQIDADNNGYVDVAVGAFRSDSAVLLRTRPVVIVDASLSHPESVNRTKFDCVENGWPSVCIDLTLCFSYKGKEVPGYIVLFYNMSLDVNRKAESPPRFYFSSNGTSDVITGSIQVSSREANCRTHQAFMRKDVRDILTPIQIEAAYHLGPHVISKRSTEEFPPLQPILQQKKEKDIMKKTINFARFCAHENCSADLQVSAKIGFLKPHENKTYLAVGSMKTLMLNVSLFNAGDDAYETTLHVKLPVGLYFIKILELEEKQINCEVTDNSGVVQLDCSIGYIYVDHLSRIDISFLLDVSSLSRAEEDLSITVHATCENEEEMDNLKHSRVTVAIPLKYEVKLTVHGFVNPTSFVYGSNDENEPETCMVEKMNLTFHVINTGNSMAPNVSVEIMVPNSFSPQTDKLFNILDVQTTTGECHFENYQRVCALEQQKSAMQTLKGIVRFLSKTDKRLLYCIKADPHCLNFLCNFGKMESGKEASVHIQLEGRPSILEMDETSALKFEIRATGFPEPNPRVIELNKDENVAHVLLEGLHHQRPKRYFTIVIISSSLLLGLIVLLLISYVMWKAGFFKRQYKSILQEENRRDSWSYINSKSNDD
T1 sequence (P26010 whole entry): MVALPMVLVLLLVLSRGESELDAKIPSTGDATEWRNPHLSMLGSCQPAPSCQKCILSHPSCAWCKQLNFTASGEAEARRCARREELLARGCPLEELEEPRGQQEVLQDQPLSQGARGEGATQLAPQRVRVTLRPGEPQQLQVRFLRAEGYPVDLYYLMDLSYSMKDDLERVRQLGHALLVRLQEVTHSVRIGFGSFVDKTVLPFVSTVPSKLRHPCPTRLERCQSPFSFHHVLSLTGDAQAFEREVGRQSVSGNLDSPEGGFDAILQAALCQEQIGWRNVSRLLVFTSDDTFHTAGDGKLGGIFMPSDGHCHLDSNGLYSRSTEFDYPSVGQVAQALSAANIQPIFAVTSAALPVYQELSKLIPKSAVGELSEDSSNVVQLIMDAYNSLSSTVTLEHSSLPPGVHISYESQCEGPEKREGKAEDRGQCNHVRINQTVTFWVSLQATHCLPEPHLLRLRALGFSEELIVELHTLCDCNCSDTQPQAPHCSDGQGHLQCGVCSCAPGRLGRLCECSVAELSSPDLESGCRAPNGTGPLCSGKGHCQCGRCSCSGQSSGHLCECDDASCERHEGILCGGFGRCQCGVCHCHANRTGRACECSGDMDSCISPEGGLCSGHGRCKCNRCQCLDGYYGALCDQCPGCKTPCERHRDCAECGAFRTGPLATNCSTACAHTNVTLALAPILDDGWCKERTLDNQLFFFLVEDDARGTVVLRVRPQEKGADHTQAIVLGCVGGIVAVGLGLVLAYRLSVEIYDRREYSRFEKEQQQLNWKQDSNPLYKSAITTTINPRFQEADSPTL
Assay: alpha-4 beta-7 Integrin Cell Capture Assay
Description: The potency of inhibitors in preventing α4β7 integrin interaction with MadCAM-1 was measured by monitoring the capture of α4β7 integrin expressing cells on a recombinant MadCAM-1 extracellular domain-coated plate. 384-Well plates (Corning 3702) were coated with MadCAM-1 extracellular domain by dispensing 20 μL of MAdCAM-1 at 1.0 μg/mL per well and incubating overnight at 4° C. The plates were then washed with PBS and blocked with 3% BSA for 2 hours before being washed again.

SMILES	EC50
N#Cc1ccc(-c2ccc(C[C@H](NC(=O)c3c(F)cc(N[C@H](C4CCOCC4)C(F)(F)F)cc3F)C(=O)O)c3cccnc23)c(Cl)c1 [US11116760, Example 338]	26.5 nM
C[C@@H]1CN(c2cc(F)c(C(=O)N[C@@H](Cc3ccc(-c4ccc(C#N)cc4Cl)c4ncccc34)C(=O)O)c(F)c2)CCO1 [US11116760, Example 328]	19.4 nM
COc1c(-c2ccc(C[C@H](NC(=O)c3c(F)cccc3F)C(=O)O)c3cccnc23)c(=O)n(C)c2ccccc12 [US11116760, Example 67]	1.6 nM
Cc1cc2c(=O)n(-c3ccc(C[C@H](NC(=O)c4c(F)cc(N5CCOC[C@@H]5C(F)(F)F)cc4F)C(=O)O)c4cccnc34)c(=O)n(C)c2cn1 [US11116760, Example 424]	0.15 nM
N#Cc1ccc(-c2ccc(C[C@H](NC(=O)c3c(F)cc(NC(=O)c4ccccc4)cc3F)C(=O)O)c3cccnc23)c(Cl)c1 [US11116760, Example 169]	88.6 nM
Cc1cc(C(F)(F)F)c(-c2ccc(C[C@H](NC(=O)c3c(F)cc(N[C@H](C4CC4)C(F)(F)F)cc3F)C(=O)O)c3cccnc23)c(=O)n1C [US11116760, Example 155]	0.3 nM
N#Cc1ccc(-c2ccc(C[C@H](NC(=O)c3c(F)cc(NC4CCOCC4)cc3F)C(=O)O)c3cccnc23)c(Cl)c1 [US11116760, Example 262]	30.6 nM
N#Cc1ccc(-c2ccc(C[C@H](NC(=O)c3c(F)cc(N4CCO[C@@H](C(F)(F)F)C4)cc3F)C(=O)O)c3cccnc23)c(Cl)c1 [US11116760, Example 265]	68.8 nM
O=C(N[C@@H](Cc1ccc(-c2cc(F)c(F)cc2OCC2CC2)c2ncccc12)C(=O)O)c1c(F)cccc1F [US11116760, Example 10]	21.2 nM
CC[C@@H](Nc1cc(F)c(C(=O)N[C@@H](Cc2ccc(-c3nccc(C)n3)c3ncccc23)C(=O)O)c(F)c1)C(F)(F)F [US11116760, Example 294]	7.4 nM
CC(C)[C@H]1COCCN1c1cc(F)c(C(=O)N[C@@H](Cc2ccc(-c3ccc(C#N)cc3Cl)c3ncccc23)C(=O)O)c(F)c1 [US11116760, Example 292]	26.9 nM
Cc1cc(C)nc(-c2ccc(C[C@H](NC(=O)c3c(F)cc(N4CCOC[C@@H]4C(F)(F)F)cc3F)C(=O)O)c3cccnc23)n1 [US11116760, Example 261]	4 nM
Cc1c(C)c(C)n(C)c(=O)c1-c1ccc(C[C@H](NC(=O)c2c(F)cc(N3CCOC[C@H]3C(F)(F)F)cc2F)C(=O)O)c2cccnc12 [US11116760, Example 251]	3.1 nM
N#Cc1ccc(-c2ccc(C[C@H](NC(=O)c3c(F)cc(NC4COC4)cc3F)C(=O)O)c3cccnc23)c(Cl)c1 [US11116760, Example 214]	28.6 nM
Cc1ccc(C(F)(F)F)c(-c2ccc(C[C@H](NC(=O)c3c(Cl)cccc3Cl)C(=O)O)c3cccnc23)n1 [US11116760, Example 68]	14 nM
N#Cc1ccc(-c2ccc(C[C@H](NC(=O)c3c(Cl)ccc(F)c3F)C(=O)O)c3cccnc23)c(Cl)c1 [US11116760, Example 17]	36.7 nM
CC1(Nc2cc(F)c(C(=O)N[C@@H](Cc3ccc(-c4ccc(C#N)cc4Cl)c4ncccc34)C(=O)O)c(F)c2)COC1 [US11116760, Example 152]	51.7 nM
COc1ccnc(-c2ccc(C[C@H](NC(=O)c3c(F)cc(N4CCOC[C@@H]4C(F)(F)F)cc3F)C(=O)O)c3cccnc23)c1C(F)(F)F [US11116760, Example 93]	0.4 nM
CC[C@@H](Nc1cc(F)c(C(=O)N[C@@H](Cc2ccc(-c3c(C(F)(F)F)c4cc(N(C)C)ccc4n(C)c3=O)c3ncccc23)C(=O)O)c(F)c1)C(F)(F)F [US11116760, Example 125]	1 nM

SMILES	EC50
C[C@H]1CN(c2cc(F)c(C(=O)N[C@@H](Cc3ccc(-c4ccc(C#N)cc4Cl)c4ncccc34)C(=O)O)c(F)c2)CCO1 [US11116760, Example 84]	11.7 nM
CCOCc1cc(OC)c(-c2ccc(C[C@H](NC(=O)c3c(F)cc(NS(=O)(=O)c4ccc(-c5ccnc(F)c5)cc4)cc3F)C(=O)O)c3cccnc23)c(OC)c1 [US11116760, Example 50]	0.4 nM
O=C(N[C@@H](Cc1ccc(-c2nccc(C#CC3CC3)c2C(F)(F)F)c2ncccc12)C(=O)O)c1c(Cl)cccc1Cl [US11116760, Example 330]	21 nM
O=C(N[C@@H](Cc1ccc(-c2nccc(C(F)(F)F)c2Cl)c2ncccc12)C(=O)O)c1c(Cl)cccc1Cl [US11116760, Example 314]	13.4 nM
N#Cc1ccc(-c2ccc(C[C@H](NC(=O)c3c(F)cc(N[C@H]4CCC4(F)F)cc3F)C(=O)O)c3cccnc23)c(Cl)c1 [US11116760, Example 173]	81.5 nM
O=C(N[C@@H](Cc1ccc(-c2ccc(F)c3cccnc23)c2ncccc12)C(=O)O)c1c(F)cccc1F [US11116760, Example 15]	9.3 nM
CC[C@@H](Nc1cc(F)c(C(=O)N[C@@H](Cc2ccc(-c3ncc(C)c(C)n3)c3ncccc23)C(=O)O)c(F)c1)C(F)(F)F [US11116760, Example 309]	11.9 nM
N#Cc1ccc(-c2ccc(C[C@H](NC(=O)c3ccc4[nH]ccc4c3Cl)C(=O)O)c3cccnc23)c(Cl)c1 [US11116760, Example 266]	72.2 nM
Cc1cnc(-c2ccc(C[C@H](NC(=O)c3c(F)cc(N4CCOC[C@@H]4C(F)(F)F)cc3F)C(=O)O)c3cccnc23)nc1C [US11116760, Example 97]	3.2 nM
Nc1ccc(C(F)(F)F)c(-c2ccc(C[C@H](NC(=O)c3c(Cl)cccc3Cl)C(=O)O)c3cccnc23)n1 [US11116760, Example 72]	5.5 nM
Cc1nc(-c2ccc(C[C@H](NC(=O)c3c(F)cc(N4CCOC[C@@H]4C(F)(F)F)cc3Cl)C(=O)O)c3cccnc23)c(=O)n(C)c1C [US11116760, Example 454]	0.14 nM
CC(O)c1cc(F)c(C(=O)N[C@@H](Cc2ccc(-c3ccc(C#N)cc3Cl)c3ncccc23)C(=O)O)c(F)c1 (stereo partly drawn) [US11116760, Example 33]	60.5 nM
CC1(C)CN(c2cc(F)c(C(=O)N[C@@H](Cc3ccc(-c4ccc(C#N)cc4Cl)c4ncccc34)C(=O)O)c(F)c2)CCO1 [US11116760, Example 213]	28.6 nM
COc1cc(F)c(C(=O)N[C@@H](Cc2ccc(-c3ccc(C#N)cc3Cl)c3ncccc23)C(=O)O)c(F)c1 [US11116760, Example 21]	96.6 nM
CCOCc1cc(OC)c(-c2ccc(C[C@H](NC(=O)c3c(F)cc(N)cc3F)C(=O)O)c3cccnc23)c(OC)c1 [US11116760, Example 44]	10.9 nM
COc1ccn(C)c(=O)c1-c1ccc(C[C@H](NC(=O)c2c(F)cccc2F)C(=O)O)c2cccnc12 [US11116760, Example 13]	8.5 nM
CC[C@@H](Nc1cc(F)c(C(=O)N[C@@H](Cc2cc(F)c(-c3c(OC)cc(C)n(C)c3=O)c3ncccc23)C(=O)O)c(F)c1)C(F)(F)F [US11116760, Example 138]	0.8 nM
N#Cc1ccc(-c2ccc(C[C@H](NC(=O)c3c(F)cc(NC(C4CCOCC4)C(F)(F)F)cc3F)C(=O)O)c3cccnc23)c(Cl)c1 (stereo partly drawn) [US11116760, Example 247]	35.2 nM
N#Cc1ccc(-c2ccc(C[C@H](NC(=O)c3c(F)cc(N4CCOC(C(F)(F)F)C4)cc3F)C(=O)O)c3cccnc23)c(Cl)c1 (stereo partly drawn) [US11116760, Example 245]	33.6 nM
